Laboratory results taken from PMC12610816, “New Dihalogenated Derivatives of Condensed Benzimidazole Diones Promotes Cancer Cell Death Through Regulating STAT3/HK2 Axis/Pathway” (Molecules, 2025).

Columns and labels:
SW-480 = experiment: MTT cytotoxicity assay; assay type: cell-based; details: SW480, Human colorectal cancer cells, 24 h, read-out: IC50 of Cytotoxic Effect, SW-480
Description: (§1) Human lung adenocarcinoma A549 cells, breast carcinoma MCF-7 cells, colon adenocarcinoma SW480 cells, neuroblastoma SH-SY5Y cells, and normal human embryonic kidney HEK-293 cells were obtained from the collection of the Institute of Cytology of the Russian Academy of Sciences (Saint Petersburg, Russia). Cultivation was performed in complete DMEM supplemented with glutamax, containing 10% fetal bovine serum and 1% penicillin-streptomycin. Cell cultures were incubated at 37 °C in a humidified atmosphere with 5% CO2.
(§2) The MTT assay was used to determine the cytotoxic profile of the synthesized compounds [128]. This method is based on the reduction of the tetrazolium salt (3-(4,5-dimethylthiazol-2-yl)-2,5-diphenyl tetrazolium bromide) by mitochondrial dehydrogenases of living cells to water-insoluble formazan crystals.
(§3) Cells in the exponential growth phase were seeded in 96-well culture plates. After 24 h, the test compounds were added to each well at various concentrations (from 0.01 to 100 µM) in triplicate. Control wells contained 1% DMSO solution.
(§4) Following a 24-h incubation with the compounds, 5 mg/mL MTT solution was added to each well, and the cells were incubated at 37 °C for 2 h. Then, the MTT solution was carefully removed, and 200 µL DMSO was added to dissolve the formed formazan crystals. Optical density was measured at a wavelength of 540 nm.
(§5) The efficacy indicators of the cytotoxic effect were IC50 values, representing compound concentrations causing 50% cell death in the sample.

A549 = experiment: MTT cytotoxicity assay; assay type: cell-based; details: Human non-small cell lung cancer, 24 h, read-out: IC50 of Cytotoxic Effect, A549
Description: as §1, §2, §3, §4, §5

SH-SY5Y = experiment: MTT cytotoxicity assay; assay type: cell-based; details: Human neuroblastoma, 24 h, read-out: IC50 of Cytotoxic Effect, SH-SY5Y
Description: as §1, §2, §3, §4, §5

MTT cytotoxicity assay = assay type: cell-based; details: HEK-293 cells (normal embryonic kidney), Human embryonic kidney (normal origin), read-out: IC50 of Cytotoxic Effect, Hek-293
Description: as §1, §2, §3, §4, §5

MCF-7 = experiment: MTT cytotoxicity assay; assay type: cell-based; details: MCF7, Human breast adenocarcinoma cells, 24 h, read-out: IC50 of Cytotoxic Effect, MCF-7
Description: as §1, §2, §3, §4, §5

pyruvate kinase M2 = biological target: T1, pyruvate kinase M2 (Homo sapiens, UniProt P14618); experiment: Glycolytic enzyme activity in treated cells (colorimetric kit); assay type: cell-based; details: MCF-7 cells, 24-h incubation, 1/2 IC50
T1 construct: activity of rate-limiting glycolytic enzymes—hexokinase II, phosphofructokinase I, and pyruvate kinase M2—in MCF-7 cells; endogenous in cells
T1 sequence (P14618 whole entry): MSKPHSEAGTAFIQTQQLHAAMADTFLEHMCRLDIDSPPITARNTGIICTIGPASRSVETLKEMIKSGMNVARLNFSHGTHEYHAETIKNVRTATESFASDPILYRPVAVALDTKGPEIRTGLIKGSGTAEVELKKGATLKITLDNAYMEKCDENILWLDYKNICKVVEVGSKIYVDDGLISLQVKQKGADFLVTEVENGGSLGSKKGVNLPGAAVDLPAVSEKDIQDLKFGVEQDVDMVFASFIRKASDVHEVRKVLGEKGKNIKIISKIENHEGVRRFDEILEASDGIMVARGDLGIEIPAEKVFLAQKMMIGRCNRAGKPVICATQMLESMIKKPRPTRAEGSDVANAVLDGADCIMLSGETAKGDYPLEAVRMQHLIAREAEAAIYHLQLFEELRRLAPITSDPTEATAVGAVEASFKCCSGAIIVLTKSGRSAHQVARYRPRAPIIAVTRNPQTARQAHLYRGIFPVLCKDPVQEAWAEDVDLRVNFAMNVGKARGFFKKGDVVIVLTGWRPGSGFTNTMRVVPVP

phosphofructokinase I = experiment: as above; assay type: cell-based, human; details: MCF-7 cells, 24-h incubation, 1/2 IC50
hexokinase II = experiment: as above; assay type: cell-based, human; details: MCF-7 cells, 24-h incubation, 1/2 IC50
[1] = MTT cytotoxicity assay, whole cell line panel; assay type: cell-based; details: human; summary of Table 1 over all five cell lines; read-out: IC50 values of the cytotoxic effect, range over the cell lines
Description: The cytotoxic effects of the synthesized compounds were tested on the cell lines A549, MCF-7, SW-480, SH-SY5Y, and HEK-293.

`O=C1C(Cl)=C(Br)C(=O)c2c1nc1n2CCOC1` [Compound 6f, 7-bromo-8-chloro-3,4-dihydro-1H-[1,4]oxazino[4,3-a]benzimidazole-6,9-dione] gave an IC50 (SW-480) of 8.44 ± 0.07 µM, an IC50 (A549) of 11.3 ± 2.49 µM and an IC50 (SH-SY5Y) of 10.8 ± 0.93 µM. The IC50 at 24 h (MTT cytotoxicity assay) was 25.38 ± 0.02 µM, the IC50 (MCF-7) was 8.9 ± 0.19 µM and the “Inhibition of enzyme activity, % of control: PKM2” value (shortened to “Inhibition … % of control: PKM2”) (pyruvate kinase M2) was 12.09 % of control. The “Inhibition of enzyme activity, % of control: PFK1” value (“Inhibition … % of control: PFK1” below) (phosphofructokinase I) was 7.57 % of control and the “Inhibition of enzyme activity, % of control: HK2” value (from here on “Inhibition … % of control: HK2”) (hexokinase II) was 30.83 % of control.
Molecule `O=C1C(Cl)=C(Br)C(=O)c2c1nc1n2CCCC1` [Compound 6c, 8-bromo-7-chloro-1,2,3,4-tetrahydropyrido[1,2-a]benzimidazole-6,9-dione] has an IC50 (SW-480) of 10.22 ± 0.04 µM, an IC50 (A549) of 7.81 ± 0.64 µM and an IC50 (SH-SY5Y) of 9.49 ± 0.8 µM. The IC50 at 24 h (MTT cytotoxicity assay) was 16 ± 0.18 µM, the IC50 (MCF-7) was 8.35 ± 0.32 µM and the “Inhibition … % of control: PKM2” value (pyruvate kinase M2) was 13.57 % of control. For the same molecule, the “Inhibition … % of control: PFK1” value (phosphofructokinase I) was 9.05 % of control and the “Inhibition … % of control: HK2” value (hexokinase II) was 36.01 % of control.
With `O=C1C(Br)=C(Cl)C(=O)c2c1nc1n2CCCC1` [Compound 6b, 7-bromo-8-chloro-1,2,3,4-tetrahydropyrido[1,2-a]benzimidazole-6,9-dione] the IC50 (SW-480) was 10.5 ± 0.68 µM, the IC50 (A549) was 8.86 ± 3.19 µM and the IC50 (SH-SY5Y) was 8.6 ± 0.06 µM. For the same molecule, the IC50 at 24 h (MTT cytotoxicity assay) was 16.52 ± 0.15 µM, the IC50 (MCF-7) was 7.79 ± 0.03 µM and the “Inhibition … % of control: PKM2” value (pyruvate kinase M2) was 14.85 % of control. The “Inhibition … % of control: PFK1” value (phosphofructokinase I) was 7.49 % of control and the “Inhibition … % of control: HK2” value (hexokinase II) was 34.25 % of control.
For `O=C1C(Cl)=C(Cl)C(=O)c2c1nc1n2CCCC1` [Compound 6d, 7,8-dichloro-1,2,3,4-tetrahydropyrido[1,2-a]benzimidazole-6,9-dione], the IC50 (SW-480) was 8.68 ± 0.2 µM, the IC50 (A549) was 7.76 ± 0.17 µM and the IC50 (SH-SY5Y) was 8.52 ± 0.49 µM. The IC50 at 24 h (MTT cytotoxicity assay) was 15.1 ± 0.38 µM, the IC50 (MCF-7) was 8.52 ± 0.23 µM and the “Inhibition … % of control: PKM2” value (pyruvate kinase M2) was 9.48 % of control. The “Inhibition … % of control: PFK1” value (phosphofructokinase I) was 8.30 % of control.
For `CC1CCn2c(nc3c2C(=O)C(Br)=C(Cl)C3=O)C1` (stereo not shown) [Compound 6e, 8-bromo-7-chloro-3-methyl-1,2,3,4-tetrahydropyrido[1,2-a]benzimidazole-6,9-dione], the IC50 (SW-480) was 9.53 ± 0.51 µM, the IC50 (A549) was 8.23 ± 0.39 µM and the IC50 (SH-SY5Y) was 9.28 ± 0.15 µM. For the same molecule, the IC50 at 24 h (MTT cytotoxicity assay) was 20.2 ± 0.3 µM, the IC50 (MCF-7) was 8.97 ± 0.05 µM and the “Inhibition … % of control: PKM2” value (pyruvate kinase M2) was 8.36 % of control. For the same molecule, the “Inhibition … % of control: PFK1” value (phosphofructokinase I) was 7.40 % of control and the “Inhibition … % of control: HK2” value (hexokinase II) was 36.22 % of control.
`O=C1C(Br)=C(Br)C(=O)c2c1nc1n2CCCC1` [Compound 6a, 7,8-dibromo-1,2,3,4-tetrahydropyrido[1,2-a]benzimidazole-6,9-dione] showed an IC50 (SW-480) of 9.11 ± 0.13 µM, an IC50 (A549) of 9.53 ± 0.59 µM and an IC50 (SH-SY5Y) of 9.66 ± 0.57 µM. For the same molecule, the IC50 at 24 h (MTT cytotoxicity assay) was 24.8 ± 0.42 µM, the IC50 (MCF-7) was 8.81 ± 1.65 µM and the “Inhibition … % of control: PKM2” value (pyruvate kinase M2) was 11.39 % of control. The “Inhibition … % of control: PFK1” value (phosphofructokinase I) was 9.75 % of control.
`CO[C@@]12[C@H](COC(N)=O)C3=C(C(=O)C(C)=C(N)C3=O)N1C[C@@H]1N[C@@H]12` [Mytomycin C, Mitomycin C, reference compound] gave an IC50 (SW-480) of 11.3 ± 0.46 µM, an IC50 (A549) of 18.1 ± 1.8 µM and an IC50 (SH-SY5Y) of 7.04 ± 0.02 µM. For the same molecule, the IC50 at 24 h (MTT cytotoxicity assay) was 6.59 ± 1.46 µM, the IC50 (MCF-7) was 20.4 ± 1.74 µM and the IC50 at 24 h [1] was 8 to 20 µM.
